Article PMC7464559, “Synthesis, Optimization, Antifungal Activity, Selectivity, and CYP51 Binding of New 2-Aryl-3-azolyl-1-indolyl-propan-2-ols” (Pharmaceuticals, 2020)
Converted amounts (≈) assume the structure as drawn.

How the values were obtained:
MRC5 toxicity assay = format: cell-based, human; settings: human, MRC-5 human fetal lung fibroblast cells, MRC-5 cells, 96-h incubation, mean of triplicate; read-out: Cytotoxicity IC50 on MRC-5 cells
Description: The cytotoxicity of compounds was studied with human fibroblast (MRC5). Cells were grown in RPMI 1640 medium (Sigma-Aldrich, Saint-Quentin Fallavier, France) supplemented with 10% fetal bovin serum (Sigma–Aldrich). Drugs were tested at three concentrations (100, 10, and 1 µM) in triplicate. After a 96-h incubation time, cytotoxicity was measured on the Fluorolite 1000 (Dynatech, Guyancourt, France) after a 4-h incubation time with Uptiblue® (Interchim, Montluçon, France). Inhibitory concentration 50 is a mean of triplicate values. A toxicity index was determined as follow: IC50 against MRC5/Geometric mean of the MICs against Candida spp..

[1] = target: T1, retinoic acid 4-hydroxylase (CYP26A1) (Homo sapiens, UniProt O43174); test: MCF-7 cellular assay for inhibition of metabolism of all-trans retinoic acid; format: cell-based; settings: mean (±5%) of two experiments
T1 construct: endogenous in cells; host or cells: MCF-7 human breast cancer cells
T1 sequence (O43174 1-497): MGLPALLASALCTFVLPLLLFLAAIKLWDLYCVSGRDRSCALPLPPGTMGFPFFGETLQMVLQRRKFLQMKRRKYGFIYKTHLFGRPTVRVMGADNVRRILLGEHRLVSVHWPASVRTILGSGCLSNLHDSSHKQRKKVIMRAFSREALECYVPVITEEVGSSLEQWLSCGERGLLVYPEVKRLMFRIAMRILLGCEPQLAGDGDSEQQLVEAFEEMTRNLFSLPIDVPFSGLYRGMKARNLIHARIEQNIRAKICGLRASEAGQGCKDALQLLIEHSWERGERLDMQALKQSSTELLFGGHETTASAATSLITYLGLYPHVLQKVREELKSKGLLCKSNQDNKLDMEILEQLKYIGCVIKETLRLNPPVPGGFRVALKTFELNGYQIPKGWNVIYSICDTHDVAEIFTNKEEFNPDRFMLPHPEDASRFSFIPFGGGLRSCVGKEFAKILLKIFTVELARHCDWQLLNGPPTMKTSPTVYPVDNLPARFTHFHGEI
Description: The HPLC system was equipped with a high-pressure pump (Milton–Roy pump, Stone, UK), injector with a 50 μL loop connected to a beta-RAM radioactivity detector, connected to a Compaq™ computer running Laura® data acquisition and analysis software. This enabled online detection and quantification of radioactive peaks. The 10 μM C18 μBondapak™ 3.9 × 300 mm HPLC column (Waters, UK) was used for the all-trans retinoic acid metabolism studies. The HPLC column operating at an ambient temperature was used to separate the metabolites, which were eluted with acetonitrile/1% ammonium acetate in water/acetic acid (75:25:0.1, v/v/v) at a flow rate of 1.9 mL/min. The Ecoscint™ was used as the flow scintillation fluid.
The separated [^3H]-metabolites were quantitatively calculated from the areas under the curves.

[2] = test system: human fetal lung fibroblast (MRC-5) cells; design: method as in PMID 31899979; settings: previously determined ref 28, read-out: Cytotoxicity IC50 on MRC-5 cells; cited from earlier work
C. krusei = test: Anti-Candida in vitro assay, C. krusei strains; format: cell-based; settings: Pichia kudriavzevii; span over the C. krusei strains tested
Description: Test fungal strains were obtained from the American Type Culture Collection (ATCC) or were clinical isolates from the Laboratory of Parasitology and Medical Mycology, Centre Hospitalier Universitaire (CHU) of Nantes. The strains were maintained on Sabouraud agar slants and were subcultured 24 h before used. The activity of the target compounds 8a–g and 11a–m was determined by the method previously described. Briefly, molecules were diluted in RPMI 1640 medium supplemented with 0.165 M morpholinopropanesulphonic acid (Sigma-Aldrich, Saint-Quentin Fallavier, France), 2% glucose, and antibiotics. Candida suspensions were prepared in RPMI 1640 medium (Sigma-Aldrich, Saint-Quentin Fallavier, France) adjusted to give a final concentration of 10^3 cells/mL, and a 96-well microplate (Nunc, D. Dutscher, Brumath, France) was seeded with 100 µL. Each concentration of molecules (100 µL) to be tested was added (in triplicate) and plates were incubated at 37 °C for 24 h. The cellular viability was evaluated on the Fluorolite 1000 (Dynatech, France) with an excitation at 550 nm and an emission at 590 nm after a 4 h incubation with 10 µL of Alamar Blue®. […] MIC was expressed as the mean of the triplicate values. KTC and FLC were used as standards.

Row | IC50 [1] [µM] | melting point [°C] | MIC (C. krusei) [µg/mL] | SMILES | IC50 at 96 h (MRC5 toxicity assay) [µM] | IC50 [2] [µM]
1 | 34 |  |  | O[C@@](Cn1cncn1)(Cn1ccc2ccccc21)c1ccc(Cl)cc1Cl [(+)-(R)-8g] | 32 | 
2 |  | 161 to 162 |  | OC(Cn1cncn1)(Cn1ccc2ccccc21)c1ccc(Cl)cc1Cl (stereo not shown) [Compound 8g, 2-(2,4-Dichlorophenyl)-3-(1H-indol-1-yl)-1-(1H-1,2,4-triazol-1-yl)-propan-2-ol] |  | 35
3 | 18 |  | 0.039 to 0.167 (≈ 0.101 to 0.431 µM) | O[C@](Cn1cncn1)(Cn1ccc2ccccc21)c1ccc(Cl)cc1Cl [(−)-(S)-8g] | 30 | 
